Source: patent US11345711B2, “8,9-dihydroimidazo[1,2-a]pyrimido[5,4-e]pyrimidin-5(6H)-ones” (IMPACT THERAPEUTICS (SHANGHAI), INC, priority 2016, dated 2022)
Structures can show the parent of a compound that is named as a salt. Where two headings read alike, the source gives them in different places.

What was measured:
LoVo cells = assay: MTT based cell viability assay on LoVo cells; settings: Homo sapiens, LoVo, 72 h, 3 d, read-out: IC50, growth inhibition of LoVo cells
Method: Determination of the cell growth inhibiting activity of 6-(2-chlorophenyl)-2-((4-(4-methylpiperazin-1-yl)phenyl)amino)-8,9-dihydroimidazo[1,2-a]pyrimido[5,4-e]pyrimidin-5(6H)-one and analogs on LoVo cells using a MTT based cell viability assay
(§1) The thawed LoVo cells were cultured and passaged to the third generation, and the growth state was good and the confluence was about 90%, which began to be used in the experiment. The LoVo cells were digested with trypsin, centrifuged at 800 rpm for 5 min, the supernatant was discarded, resuspended with fresh culture medium, and counted. 6000 Cells are seeded to each well of a 96-well plate. The cells are incubated at 37° C. in a 5% CO2 cell culture incubator overnight. The tested sample (including the tested compound and the reference compound AZD1775) was diluted continuously to 8 concentrations (the last concentration was negative control of DMSO) with a 1:3 and 1:10 dilution in DMSO respectively: 10 μM, 3.3 μM, 1 μM, 0.33 μM, 0.1 μM, 0.033 μM, 0.01 μM, 0 μM (the final concentration of DMSO was 1%). 5 μL of each concentration was added to 120 μL of culture medium (25 times diluted), and the mixture was shaken well. The overnight cells were taken and the culture medium was removed, 195 μL of fresh culture medium was added to each well, and 5 μL of diluted culture medium containing the corresponding concentration of the tested sample was added respectively, and the culture plate was then placed in the 5% CO2 cell culture incubator at 37° C. for 3 d. After removing the original solution and adding 100 μL of fresh serum-free DMEM culture medium containing MTT (0.5 mg/mL) per well, the culture was continued. The original solution was removed after 4 hrs and 100 μl DMSO was added to each well. The 96-well cell culture plates were shaken away from light for 10 min and readed in a multifunctional reader at 552/630/690 nm to give absorption values (OD values). The data were analyzed using a commercial graphic software (Graph Pad Prism 5.0) and the inhibitory activity of the compound on cell proliferation was plotted in terms of cell survival and compound concentration. The IC50 values were fitted by the S-shaped dose-response curve equation as follows: Y=100/(1+10^(Log C-Log IC50)), where C was the concentration of testing compounds.

NCI-H1299 cells = assay: MTT based cell viability assay on NCI-H1299 cells; settings: Homo sapiens, read-out: IC50, growth inhibition of NCI-H1299 cells
Method: Determination of the cell growth inhibiting activity of 6-(2-chlorophenyl)-2-((4-(4-methylpiperazin-1-yl)phenyl)amino)-8,9-dihydroimidazo[1,2-a]pyrimido[5,4-e]pyrimidin-5(6H)-one and analogs on NCI-H1299 cells using a MTT based cell viability assay
as §1, with “NCI-H1299” for “LoVo”, “group,” for “medium,”, “1000” for “6000”, “1‰).” for “1%).”, “C−Log” for “C-Log”

Wee1 (h) = Wee1 (h) (Homo sapiens, UniProt P30291); assay: Wee1 kinase (h) detection method, [γ-33P]-ATP filter assay; format: biochemical
Method: Determination of the inhibitory effect of 6-(2-chlorophenyl)-2-((4-(4-methylpiperazin-1-yl)phenyl)amino)-8,9-dihydroimidazo[1,2-a]pyrimido[5,4-e]pyrimidin-5(6H)-one and Analogs on the Enzyme Activity of Wee1 Kinase by Using the Wee1 Kinase (h) Detection Method
Then the stock solution of all compounds under test with 50× concentration in 100% DMSO was added to make the final concentration of 10/1/0.1/0.01 μM, and then mixed the mixture well. The reaction is initiated by the addition of the Mg/ATP mix. After incubation for 40 minutes at room temperature, the reaction is stopped by the addition of phosphoric acid to a concentration of 0.5%. […] Each compound sample is duplicated in duplicate. The negative control was lack of all the components of Wee1 enzyme, and the positive was addition of 30% phosphoric acid to terminate the reaction. The Wee1 inhibitor AZD1775 was detected at 10 μM at the same experiment condition.

Wee1 (h), sequence (P30291 whole entry): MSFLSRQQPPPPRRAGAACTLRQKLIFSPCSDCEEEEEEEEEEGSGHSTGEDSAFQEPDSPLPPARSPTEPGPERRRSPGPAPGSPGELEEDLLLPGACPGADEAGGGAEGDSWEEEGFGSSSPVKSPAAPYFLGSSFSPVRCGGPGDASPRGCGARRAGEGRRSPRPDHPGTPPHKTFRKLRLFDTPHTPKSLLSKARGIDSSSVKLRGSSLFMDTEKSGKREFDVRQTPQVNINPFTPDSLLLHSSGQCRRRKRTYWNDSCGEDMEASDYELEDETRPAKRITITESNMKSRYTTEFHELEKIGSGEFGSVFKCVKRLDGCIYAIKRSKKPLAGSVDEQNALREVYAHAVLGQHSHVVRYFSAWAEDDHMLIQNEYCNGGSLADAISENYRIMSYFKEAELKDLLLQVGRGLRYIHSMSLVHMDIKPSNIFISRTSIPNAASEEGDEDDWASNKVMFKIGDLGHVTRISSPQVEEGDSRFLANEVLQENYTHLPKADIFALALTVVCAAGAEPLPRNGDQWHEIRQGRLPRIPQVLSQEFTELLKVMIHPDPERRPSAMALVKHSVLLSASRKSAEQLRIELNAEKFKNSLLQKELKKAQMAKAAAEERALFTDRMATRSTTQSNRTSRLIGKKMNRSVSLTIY

With `CN1CCN(c2ccc(Nc3cc4c(cn3)C(=O)N(c3ccccc3Cl)C3=NCCN34)cc2)CC1` [Example 3, 4-(2-Chlorophenyl)-8-((4-(4-methylpiperazin-1-yl)phenyl)amino)-2,4-dihydroimidazo[1,2-a]pyrido[3,4-e]pyrimidin-5(1H)-one] the IC50 (LoVo cells) was > 100000 nM, the IC50 (NCI-H1299 cells; NCI-H1299 cells) was > 10000 nM and the “Inh. (%) of Wee1 kinase enzyme activity” value (Wee1 (h); C 10 μm compound) was 56%.
For `CN1CCN(c2ccc(Nc3ncc4c(n3)N3CCN=C3N(c3c(Cl)cccc3Cl)C4=O)cc2)CC1` [Example 4, 6-(2,6-Dichlorophenyl)-2-((4-(4-methylpiperazin-1-yl)phenyl)amino)-8,9-dihydroimidazo[1,2-a]pyrimido[5,4-e]pyrimidin-5(6H)-one], the IC50 (LoVo cells) was 169 nM, the IC50 (NCI-H1299 cells; NCI-H1299, NCI-H1299 cells) was 204 nM and the “Inh. (%) of Wee1 kinase enzyme activity” value (Wee1 (h); C 0.01 μm compound) was 55%. For the same compound, the “Inh. (%) of Wee1 kinase enzyme activity” value (Wee1 (h); C 0.1 μm compound) was 93%, the “Inh. (%) of Wee1 kinase enzyme activity” value (Wee1 (h); C 1 μm compound) was 97% and the inhibition at 0.01 µM (Wee1 (h); at 0.01 μM, read-out: inhibitory rate on Wee1 enzyme activity) was 51%.
With `Cc1cccc(Cl)c1N1C(=O)c2cnc(Nc3ccc(N4CCN(C)CC4)cc3)nc2N2CCN=C21` [Example 5, 6-(2-Chloro-6-methylphenyl)-2-((4-(4-methylpiperazin-1-yl)phenyl)amino)-8,9-dihydroimidazo[1,2-a]pyrimido[5,4-e]pyrimidin-5(6H)-one] the IC50 (LoVo cells) was 431 nM, the IC50 (NCI-H1299 cells; NCI-H1299 cells) was 941 nM and the “Inh. (%) of Wee1 kinase enzyme activity” value (Wee1 (h); C 1 μm compound) was 88%.
With `CC(C)N1CCN(c2ccc(Nc3ncc4c(n3)N3CCN=C3N(c3c(F)cccc3Cl)C4=O)cc2)CC1` [Example 6, 6-(2-Chloro-6-fluorophenyl)-2-((4-(4-isopropylpiperazin-1-yl)phenyl)amino)-8,9-dihydroimidazo[1,2-a]pyrimido[5,4-e]pyrimidin-5(6H)-one] the IC50 (LoVo cells) was 339 nM, the IC50 (NCI-H1299 cells; NCI-H1299 cells) was 461 nM and the “Inh. (%) of Wee1 kinase enzyme activity” value (Wee1 (h); C 0.01 μm compound) was 33%. The “Inh. (%) of Wee1 kinase enzyme activity” value (Wee1 (h); C 0.1 μm compound) was 89% and the “Inh. (%) of Wee1 kinase enzyme activity” value (Wee1 (h); C 1 μm compound) was 98%.
With `CC(=O)N1CCN(c2ccc(Nc3ncc4c(n3)N3CCN=C3N(c3c(F)cccc3Cl)C4=O)cc2)CC1` [Example 7, 2-((4-(4-Acetylpiperazin-1-yl)phenyl)amino)-6-(2-chloro-6-fluorophenyl)-8,9-dihydroimidazo[1,2-a]pyrimido[5,4-e]pyrimidin-5(6H)-one] the IC50 (LoVo cells) was 1430 nM, the IC50 (NCI-H1299 cells; NCI-H1299 cells) was 1260 nM and the “Inh. (%) of Wee1 kinase enzyme activity” value (Wee1 (h); C 0.01 μm compound) was 31%. The “Inh. (%) of Wee1 kinase enzyme activity” value (Wee1 (h); C 0.1 μm compound) was 84% and the “Inh. (%) of Wee1 kinase enzyme activity” value (Wee1 (h); C 1 μm compound) was 96%.
With `CN1CCc2ccc(Nc3ncc4c(n3)N3CCN=C3N(c3c(F)cccc3Cl)C4=O)cc2C1` [Example 8, 6-(2-Chloro-6-fluorophenyl)-2-((2-methyl-1,2,3,4-tetrahydroisoquinolin-7-yl)amino)-8,9-dihydroimidazo[1,2-a]pyrimido[5,4-e]pyrimidin-5(6H)-one] the IC50 (LoVo cells) was 202 nM, the IC50 (NCI-H1299 cells; NCI-H1299 cells) was 159 nM and the “Inh. (%) of Wee1 kinase enzyme activity” value (Wee1 (h); C 0.01 μm compound) was 60%. For the same compound, the “Inh. (%) of Wee1 kinase enzyme activity” value (Wee1 (h); C 0.1 μm compound) was 93% and the “Inh. (%) of Wee1 kinase enzyme activity” value (Wee1 (h); C 1 μm compound) was 99%.
In the case of `CN1Cc2cc(Nc3ncc4c(n3)N3CCN=C3N(c3c(F)cccc3Cl)C4=O)ccc2C(C)(C)C1` [Example 9, 6-(2-Chloro-6-fluorophenyl)-2-((2,4,4-trimethyl-1,2,3,4-tetrahydroisoquinolin-7-yl)amino)-8,9-dihydroimidazo[1,2-a]pyrimido[5,4-e]pyrimidin-5(6H)-one], the IC50 (LoVo cells) is reported as 126 nM, the IC50 (NCI-H1299 cells; NCI-H1299 cells) is reported as 183 nM and the “Inh. (%) of Wee1 kinase enzyme activity” value (Wee1 (h); C 0.01 μm compound) is reported as 28%. For the same compound, the “Inh. (%) of Wee1 kinase enzyme activity” value (Wee1 (h); C 0.1 μm compound) was 79% and the “Inh. (%) of Wee1 kinase enzyme activity” value (Wee1 (h); C 1 μm compound) was 100%.
In the case of `CN1Cc2cc(Nc3ncc4c(n3)N3CCN=C3N(c3c(F)cccc3Cl)C4=O)ccc2C2(CC2)C1` [Example 10, 6-(2-Chloro-6-fluorophenyl)-2-((2′-methyl-2′,3′-dihydro-1′H-spiro[cyclopropane-1,4′-isoquinolin]-7′-yl)amino)-8,9-dihydroimidazo[1,2-a]pyrimido[5,4-e]pyrimidin-5(6H)-one], the IC50 (LoVo cells) is reported as 88.7 nM, the IC50 (NCI-H1299 cells; NCI-H1299 cells) is reported as 172 nM and the “Inh. (%) of Wee1 kinase enzyme activity” value (Wee1 (h); C 0.01 μm compound) is reported as 46%. The “Inh. (%) of Wee1 kinase enzyme activity” value (Wee1 (h); C 0.1 μm compound) was 93% and the “Inh. (%) of Wee1 kinase enzyme activity” value (Wee1 (h); C 1 μm compound) was 98%.
Work on `Cc1cc(Nc2ncc3c(n2)N2CCN=C2N(c2c(Cl)cccc2Cl)C3=O)ccc1N1CCC(N(C)C)CC1` [Example 141, 6-(2,6-Dichlorophenyl)-2-((4-(4-(dimethylamino)piperidin-1-yl)-3-methylphenyl)amino)-8,9-dihydroimidazo[1,2-a]pyrimido[5,4-e]pyrimidin-5(6H)-one] yielded an IC50 (LoVo cells) of 37.3 nM and an IC50 (NCI-H1299 cells; NCI-H1299 cells) of 42.9 nM.
Work on `COc1cc(Nc2ncc3c(n2)N2CCN=C2N(c2c(Cl)cccc2Cl)C3=O)cc(C)c1N1CCN(C)CC1` [Example 159, 6-(2,6-Dichlorophenyl)-2-((3-methoxy-5-methyl-4-(4-methylpiperazin-1-yl)phenyl)amino)-8,9-dihydroimidazo[1,2-a]pyrimido[5,4-e]pyrimidin-5(6H)-one] yielded an IC50 (LoVo cells) of 52.2 nM and an IC50 (NCI-H1299 cells; NCI-H1299 cells) of 56.8 nM.
Work on `Cc1cc(Nc2ncc3c(n2)N2CCN=C2N(c2c(C)cccc2Cl)C3=O)cc(F)c1N1CCC(N(C)C)CC1` [Example 170, 6-(2-Chloro-6-methylphenyl)-2-((4-(4-(dimethylamino)piperidin-1-yl)-3-fluoro-5-methylphenyl)amino)-8,9-dihydroimidazo[1,2-a]pyrimido[5,4-e]pyrimidin-5(6H)-one] yielded an IC50 (LoVo cells) of 76.9 nM and an IC50 (NCI-H1299 cells; NCI-H1299 cells) of 89.9 nM.
Work on `Cc1cc(Nc2ncc3c(n2)N2CCN=C2N(c2c(Cl)cccc2Cl)C3=O)ccc1N1CCNCC1` [Example 177, 6-(2,6-Dichlorophenyl)-2-((3-methyl-4-(piperazin-1-yl)phenyl)amino)-8,9-dihydroimidazo[1,2-a]pyrimido[5,4-e]pyrimidin-5(6H)-one] yielded an IC50 (LoVo cells) of 59.5 nM and an IC50 (NCI-H1299 cells; NCI-H1299 cells) of 83.1 nM.
Work on `CNCc1cc(Nc2ncc3c(n2)N2CCN=C2N(c2c(Cl)cccc2Cl)C3=O)ccc1N1CCOCC1` [Example 184, 6-(2,6-Dichlorophenyl)-2-((3-((methylamino)methyl)-4-morpholinophenyl)amino)-8,9-dihydroimidazo[1,2-a]pyrimido[5,4-e]pyrimidin-5(6H)-one] yielded an IC50 (LoVo cells) of 1490 nM and an IC50 (NCI-H1299 cells; NCI-H1299 cells) of 879 nM.
With `CN1CCN(c2ccc(Nc3ncc4c(n3)N3CCN=C3N(c3c(Cl)cccc3Cl)C4=O)cc2Cl)CC1` [Example 186, 6-(2,6-Dichlorophenyl)-2-((3-chloro-4-(4-methylpiperazin-1-yl)phenyl)amino)-8,9-dihydroimidazo[1,2-a]pyrimido[5,4-e]pyrimidin-5(6H)-one dihydrochloride] the IC50 (LoVo cells) was 42.4 nM and the IC50 (NCI-H1299 cells; NCI-H1299 cells) was 154 nM.
